Results published in ChEMBL document CHEMBL1201862, “PubChem BioAssay data set” (2004).
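A five-concentration, 48-hour dose response in 96-well plates underlies each endpoint, interpolated linearly between surrounding concentrations. Here, GI50 denotes the concentration required for 50% inhibition of growth.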 Active and inactive are the calls of the source. Cut-off read from the data, not from the text of the source: active = GI50 up to about 1.1 µM and inactive = higher. Square brackets hold non-standard residues; d marks the D form. Peptide text beside a SMILES is read from it. * marks the point of attachment. X26 = COC1=CC(=O)N(C(=O)[C@@H](O*)C(C)C)[C@H]1Cc1ccccc1; NMeL = CN[C@@H](CC(C)C)C(=O)O; Hexanoyl = CCCCCC(=O)*

Assays:
Experiment in all cases: growth of human tumour cells (NCI), 48 h
A498 = system: A498
BT-549 = system: BT-549
CAKI-1 = system: CAKI-1
CCRF-CEM = system: CCRF-CEM
HCT-15 = system: HCT-15
HL-60 = system: HL-60
MDA-MB-435 = system: MDA-MB-435
MDA-N = system: MDA-N
NCI-H226 = system: NCI-H226
NCI-H23 = system: NCI-H23
NCI-H460 = system: NCI-H460
NCI-H522 = system: NCI-H522
OVCAR-5 = system: OVCAR-5
RXF 393 = system: RXF 393
SF-539 = system: SF-539
SK-MEL-2 = system: SK-MEL-2
SN12C = system: SN12C
SW-620 = system: SW-620
TK-10 = system: TK-10
SNB-19 = system: SNB-19

SMILES	GI50 (A498)	GI50 (BT-549)	GI50 (CAKI-1)	GI50 (CCRF-CEM)	GI50 (HCT-15) [µM]	GI50 (HL-60)	GI50 (MDA-MB-435)	GI50 (MDA-N)	GI50 (NCI-H226)	GI50 (NCI-H23)	GI50 (NCI-H460)	GI50 (NCI-H522)	GI50 (OVCAR-5)	GI50 (RXF 393)	GI50 (SF-539)	GI50 (SK-MEL-2)	GI50 (SN12C)	GI50 (SW-620)	GI50 (TK-10)	GI50 (SNB-19)
CCCCCC(=O)N[C@H](C(=O)N[C@H](C(=O)N(C)[C@@H](CC(C)C)C(=O)N1CCC[C@H]1C(=O)N1CCC[C@H]1C(=O)O[C@H](C(=O)N1C(=O)C=C(OC)[C@@H]1Cc1ccccc1)C(C)C)C(C)C)C(C)C (Hexanoyl-VV[NMeL]PP-X26)	51.5 µM (inactive)	83.4 µM (inactive)	74.6 µM (inactive)	42.9 µM (inactive)	> 43.4	1.46 µM (inactive)	47.9 µM (inactive)	28.3 µM (inactive)	> 100 µM (inactive)	21.2 µM (inactive)	> 100 µM (inactive)	> 100 µM (inactive)	> 100 µM (inactive)	10.1 µM (inactive)	> 59.2 µM (inactive)	> 100 µM (inactive)	35.6 µM (inactive)	> 100 µM (inactive)	> 100 µM (inactive)	
CCCCN1C(=O)c2c(-c3sccc3N)sc(-c3sccc3N)c2C1=O	23.4 µM (inactive)	29.4 µM (inactive)	23.8 µM (inactive)	4.05 µM (inactive)	> 34.9		30.8 µM (inactive)	4.94 µM (inactive)	0.713 µM (active)	28 µM (inactive)	26.1 µM (inactive)	14.1 µM (inactive)	21.5 µM (inactive)	12.6 µM (inactive)	12.4 µM (inactive)	32.7 µM (inactive)	19 µM (inactive)	> 32.6 µM (inactive)	22.3 µM (inactive)	18.9 µM (inactive)
CC(C)=CCC[C@@H](C)C1=CC(=O)C(C)=C(O)C1=O [ISOPEREZONE]	17 µM (inactive)	5.78 µM (inactive)	4.95 µM (inactive)	1.19 µM (inactive)	2.66	0.3 µM (active)	4.31 µM (inactive)	4.81 µM (inactive)	7.19 µM (inactive)	6.75 µM (inactive)	16.3 µM (inactive)	1.36 µM (inactive)	14.4 µM (inactive)	2.67 µM (inactive)		9.64 µM (inactive)	10.7 µM (inactive)	4.02 µM (inactive)	5.11 µM (inactive)	15.9 µM (inactive)
O=C(Nc1ccc([N+](=O)[O-])cc1)Nn1cnnc1	34.1 µM (inactive)	20.8 µM (inactive)	> 100 µM (inactive)	> 100 µM (inactive)	45.6	> 100 µM (inactive)	44.9 µM (inactive)	34 µM (inactive)	< 0.01 µM (active)	13 µM (inactive)	37.6 µM (inactive)	49.8 µM (inactive)	> 100 µM (inactive)		25.7 µM (inactive)	> 100 µM (inactive)	> 10 µM (inactive)	89.7 µM (inactive)	42.5 µM (inactive)	57 µM (inactive)
Cc1ccc(S(=O)(=O)NCCN(CCNS(=O)(=O)c2ccc(C)cc2)S(=O)(=O)c2ccc(C)cc2)cc1	> 100 µM (inactive)	> 100 µM (inactive)	> 100 µM (inactive)	> 100 µM (inactive)	> 100		30.8 µM (inactive)	> 100 µM (inactive)		> 100 µM (inactive)	> 100 µM (inactive)	> 100 µM (inactive)	> 100 µM (inactive)	87.9 µM (inactive)	42.5 µM (inactive)	> 100 µM (inactive)	> 100 µM (inactive)	> 100 µM (inactive)	41.4 µM (inactive)	46.7 µM (inactive)
CCN(CC)C(=S)SS(=O)(=O)c1ccc(C)cc1	> 100 µM (inactive)	28.7 µM (inactive)	17.7 µM (inactive)	< 0.01 µM (active)	36.7		31.5 µM (inactive)	27.9 µM (inactive)	52 µM (inactive)	42.4 µM (inactive)	27.2 µM (inactive)	< 0.01 µM (active)	> 100 µM (inactive)	16.8 µM (inactive)	16.9 µM (inactive)	50.4 µM (inactive)	17.5 µM (inactive)	19.9 µM (inactive)	> 100 µM (inactive)	61.1 µM (inactive)
Cn1cc(C2NC(=O)c3ccccc3N2)c2ccccc21 (configuration not stated)	0.206 µM (active)	> 100 µM (inactive)		0.413 µM (active)	0.191	0.12 µM (active)	0.0785 µM (active)	0.0632 µM (active)	0.746 µM (active)	1.31 µM (inactive)	1.06 µM (active)	0.695 µM (active)	1.18 µM (inactive)	0.681 µM (active)	1.86 µM (inactive)	2.02 µM (inactive)	1.63 µM (inactive)	0.542 µM (active)	2.94 µM (inactive)	1.55 µM (inactive)
